≈ marks a conversion by molar mass, not a printed value.
Tests used:
[1] = test system: H. pylori ATCC 43504; experiment: Minimum Inhibitory Concentration (MIC) blood agar plate growth inhibition; format: cell-based, Helicobacter pylori
Procedure: Subsequent dilutions were made in ethanol immediately prior to use. […] Subsequent dilutions were made in BHI medium (Brain heart infusion broth, Difco #0037-07-0) immediately prior to use.
(§1) Blood agar base (BAB) was prepared containing 1.5% agar and autoclaved. 20 ml samples of autoclaved BAB were poured into 50 mL tubes and placed in a 56° C. water bath.
The mixed media preparation was poured into a petri dished and allowed to solidify.
(§2) Prior to inoculation of petri plates, bacteria or cultures were examined for morphology under a phase microscope to confirm motility and physical characteristics, e.g., spiral shaped. The organisms were washed off the plate into PBS (Phosphate buffered saline) (80.0 g NaCl, 2.0 g KCl, 2.4 g KH2PO4 11.5 g Na2HPO4 or 24.4 g Na2HPO4/2H2O per 1 liter deionized water, pH 7.2, sterilized by autoclaving) and diluted into BHI at a concentration of 10^8/ml (O.D. of 0.3 units diluted 1:30). Ten microliters of solution containing 10^6 organisms were spread onto a petri plate and grown under microaerophilic conditions for 3 days unless specified. Control organisms were grown under microaerophilic conditions.
(§3) Inhibition of growth was determined by the amount of colonies present within the petri plate. The following factors were used for growth inhibition: ±=0-20 colonies, +=20-50 colonies, ++=50-200 colonies and +++=200+ colonies.

[2] = test system: H. pylori (urease negative) (Wild strain of ATCC 43504); experiment: as above; format: cell-based, Helicobacter pylori; conditions: Table III
Procedure: (§4) Monensin (Sigma Cat. No. M-5273) was dissolved in 100% absolute ethanol (AAPER Alcohol and Chemical Co.) at a concentration of 20 mg/ml. Subsequent dilutions were made in ethanol immediately prior to use. Nigericin (Sigma Cat. No. N-7143) was dissolved in DMSO at 2 mg/ml. Subsequent dilutions were made in BHI medium (Brain heart infusion broth, Difco #0037-07-0) immediately prior to use.
as §1
(§5) 100 μl of a drug (final concentration equivalent to 1:200 of original concentration) and 1.2 ml of sheep blood (Colorado Senun Company # CS-1112) (blood diluted in a 1:1 buffer providing a 3% concentration of blood per 20 ml medium sample) were added to 20 ml sample of media and mixed. The mixed media preparation was poured into a petri dished and allowed to solidify.
as §2, §3

[3] = test system: Staph ATCC 14775; experiment: Blood agar plate growth inhibition, control organism; format: cell-based
Procedure: as §4, §1, §5
as §2, with “Control organisms were grown under microaerophilic conditions.” left out
as §3

[4] = test system: H. pylori (urease positive) ATCC Number 51652; experiment: Minimum Inhibitory Concentration (MIC) blood agar plate growth inhibition; format: cell-based, Helicobacter pylori; conditions: Table XVII, Blood agar base + 3% sheep blood
Procedure: as §4, §1, §5, §2, §3

[5] = final drug concentration 0.1 ng/ml
[6] = final drug concentration 10 ng/ml
[7] = final drug concentration 100 ng/ml
[8] = final drug concentration 1 μg/ml
[9] = final drug concentration 10 μg/ml

Q: With `CO[C@@H]1C[C@@H](C[C@H]2CC[C@H](C)[C@H]([C@@H](C)C(=O)O)O2)O[C@]2(O[C@](C)([C@H]3CC[C@@](C)([C@@H]4O[C@@H]([C@H]5O[C@@](O)(CO)[C@H](C)C[C@@H]5C)C[C@@H]4C)O3)C[C@H]2C)[C@@H]1C` [Nigericin, nigericin] as the molecule, how does the “growth (amount of colonies present within the petri plate)” value (shortened to “growth”) ([1]; Table I, final drug concentration 0.1 ng/ml) read?
A: (+++) (+++=200+ colonies)

Q: What about the “growth” value ([1]; Table I, final drug concentration 1 ng/ml) of the same molecule?
A: (+++) (+++=200+ colonies)

Q: What about the “growth” value ([1]; Table I, final drug concentration 10 ng/ml) of the same molecule?
A: (+++) (+++=200+ colonies)

Q: What about the “growth” value ([1]; Table I, final drug concentration 100 ng/ml) of the same molecule?
A: (++) (++=50-200 colonies)

Q: And the “growth” value ([1]; Table I, final drug concentration 1 μg/ml)?
A: No growth

Q: And the “growth” value ([1]; Table I, final drug concentration 10 μg/ml)?
A: No growth

Q: And the “growth” value ([1]; Table II, urease positive, final drug concentration 1 ng/ml)?
A: (+++) (+++=200+ colonies)

Q: What about the “growth” value ([1]; Table II, urease positive, final drug concentration 10 ng/ml) of the same molecule?
A: (+++) (+++=200+ colonies)

Q: And the “growth” value ([1]; Table II, urease positive, final drug concentration 1 μg/ml)?
A: No growth

Q: What about the “growth” value ([1]; Table II, urease positive, final drug concentration 10 μg/ml) of the same molecule?
A: No growth

Q: And the “growth” value ([1]; Table II, urease positive, final drug concentration 0.1 nglml)?
A: (+++) (+++=200+ colonies)

Q: And the “growth” value ([1]; Table IV, urease positive, final drug concentration 0.1 ng/ml)?
A: (+++) (+++=200+ colonies)

Q: And the “growth” value ([1]; Table IV, urease positive, final drug concentration 1 ng/ml)?
A: (+++) (+++=200+ colonies)

Q: And the “growth” value ([1]; Table IV, urease positive, final drug concentration 10 ng/ml)?
A: (+++) (+++=200+ colonies)

Q: And the “growth” value ([1]; Table IV, urease positive, final drug concentration 100 ng/ml)?
A: (+++) (+++=200+ colonies)

Q: And the “growth” value ([1]; Table IV, urease positive, final drug concentration 1 μg/ml)?
A: No growth

Q: And the “growth” value ([1]; Table IV, urease positive, final drug concentration 10 μg/ml)?
A: No growth

Q: And the “growth” value ([1]; Table V, in the presence of 10 mM urea, final drug concentration 0.1 ng/ml, Nigericin assay done in duplicate)?
A: (+++)^1 (+++=200+ colonies)

Q: What about the “growth” value ([1]; Table V, in the presence of 10 mM urea, final drug concentration 1 ng/ml, Nigericin assay done in duplicate) of the same molecule?
A: (+++)^1 (+++=200+ colonies)

Q: What about the “growth” value ([1]; Table V, in the presence of 10 mM urea, final drug concentration 10 ng/ml, Nigericin assay done in duplicate) of the same molecule?
A: (++)^1 (++=50-200 colonies)

Q: What about the “growth” value ([1]; Table V, in the presence of 10 mM urea, final drug concentration 100 ng/ml, Nigericin assay done in duplicate) of the same molecule?
A: (+++)^1 (+++=200+ colonies)

Q: And the “growth” value ([1]; Table V, in the presence of 10 mM urea, final drug concentration 1 μg/ml, Nigericin assay done in duplicate)?
A: (±)^1 (±=0-20 colonies)

Q: And the “growth” value ([1]; Table V, in the presence of 10 mM urea, final drug concentration 10 μg/ml, Nigericin assay done in duplicate)?
A: No growth^1

Q: And the “growth” value ([1]; Table VI, in the presence of 2.5 mM urea, final drug concentration 1 ng/ml)?
A: (+++) (+++=200+ colonies)

Q: And the “growth” value ([1]; Table VI, in the presence of 2.5 mM urea, final drug concentration 10 ng/ml)?
A: (+++) (+++=200+ colonies)

Q: And the “growth” value ([1]; Table VI, in the presence of 2.5 mM urea, final drug concentration 1 μg/ml)?
A: (±) (±=0-20 colonies)

Q: And the “growth” value [2, 5]?
A: (+++) (+++=200+ colonies)

Q: And the “growth” value [2, 6]?
A: (+++) (+++=200+ colonies)

Q: What about the “growth” value [2, 7] of the same molecule?
A: (+++) (+++=200+ colonies)

Q: What about the “growth” value [2, 8] of the same molecule?
A: No growth

Q: What about the “growth” value [2, 9] of the same molecule?
A: No growth

Q: What about the “growth” value ([3]; Table XIV, Non-microaerophilic conditions, final drug concentration 0.1 ng/ml) of the same molecule?
A: (+++) (+++=200+ colonies)

Q: And the “growth” value ([3]; Table XIV, Non-microaerophilic conditions, final drug concentration 1 ng/ml)?
A: (+++) (+++=200+ colonies)

Q: And the “growth” value ([3]; Table XIV, Non-microaerophilic conditions, final drug concentration 10 ng/ml)?
A: (+++) (+++=200+ colonies)

Q: What about the “growth” value ([3]; Table XIV, Non-microaerophilic conditions, final drug concentration 100 ng/ml) of the same molecule?
A: (+++***) (+++=200+ colonies)

Q: What about the “growth” value ([3]; Table XIV, Non-microaerophilic conditions, final drug concentration 1 μg/ml) of the same molecule?
A: No growth

Q: What about the “growth” value ([3]; Table XIV, Non-microaerophilic conditions, final drug concentration 10 μg/ml) of the same molecule?
A: No growth

Q: With `CC[C@@H](C(=O)[C@@H](C)[C@@H](O)[C@H](C)[C@@H]1O[C@@H]([C@@H](CC)C(=O)O)CC[C@@H]1C)[C@H]1O[C@]2(C=C[C@@H](O)[C@]3(CC[C@@](C)([C@H]4CC[C@](O)(CC)[C@H](C)O4)O3)O2)[C@H](C)C[C@@H]1C` [Salinomycin, salinomycin] as the molecule, how does the MIC ([1]; Helicobacter pylori, ATCC43504) read?
A: 6.25 µg/mL (≈ 8.32 µM)

Q: And the “growth” value ([1]; Table VII, urease positive, final drug concentration 0.098 μg/ml)?
A: (+++) (+++=200+ colonies)

Q: What about the “growth” value ([1]; Table VII, urease positive, final drug concentration 0.195 μg/ml) of the same molecule?
A: (+++) (+++=200+ colonies)

Q: What about the “growth” value ([1]; Table VII, urease positive, final drug concentration 0.39 μg/ml) of the same molecule?
A: (+++) (+++=200+ colonies)

Q: And the “growth” value ([1]; Table VII, urease positive, final drug concentration 0.78 μg/ml)?
A: (+++) (+++=200+ colonies)

Q: What about the “growth” value ([1]; Table VII, urease positive, final drug concentration 1.56 μg/ml) of the same molecule?
A: (+++) (+++=200+ colonies)

Q: And the “growth” value [4, 5]?
A: (+++) (+++=200+ colonies)

Q: What about the “growth” value ([4]; final drug concentration 1 ng/ml) of the same molecule?
A: (+++) (+++=200+ colonies)

Q: What about the “growth” value [4, 6] of the same molecule?
A: (+++) (+++=200+ colonies)

Q: What about the “growth” value [4, 7] of the same molecule?
A: (+++) (+++=200+ colonies)

Q: What about the “growth” value [4, 8] of the same molecule?
A: (+++) (+++=200+ colonies)

Q: And the “growth” value [4, 9]?
A: No growth

Q: And the “growth” value ([3]; Table XV, Non microaerophilic conditions, final drug concentration 10 ng/ml)?
A: (+++) (+++=200+ colonies)

Q: What about the “growth” value ([3]; Table XV, Non microaerophilic conditions, final drug concentration 100 ng/ml) of the same molecule?
A: (+++) (+++=200+ colonies)

Q: And the “growth” value ([3]; Table XV, Non microaerophilic conditions, final drug concentration 1 μg/ml)?
A: (+++)^1 (+++=200+ colonies)

Q: What about the “growth” value ([3]; Table XV, Non microaerophilic conditions, final drug concentration 10 μg/ml) of the same molecule?
A: No growth

From patent US20010044463A1, “Methods for controlling gram negative bacteria in mammals” (priority 1997, published 2001)
